Test results: patent publication US8202873B2, “2-[4-(pyrazol-4-ylalkyl)piperazin-1-yl]-3-phenyl pyrazines as 5-HT7 receptor antagonists” (Eli Lilly and Company, priority 2007, dated 2012)
Marks after values point to notes of the source that are not given here.

Assays:
adult male CF-1 mice = assay: Foot electroshock stress induced cGMP elevation model for anxiety; type: in vivo; details: normalized to vehicle/no stress group, mean
Description: The foot electroshock stress induced cGMP elevation model for anxiety is an established anxiety model, wherein stress from an unavoidable electroshock to the feet induces an elevation in cerebellar cGMP levels, which elevation is reduced or blocked by preadministration of anxiolytic compounds (Sethy and Oien (1991), Pharmacology Biochemistry & Behavior, vol. 39, pg. 379-382). Briefly, adult male CF-1 mice (25-30 g Harlan, Indianapolis, Ind.) are housed under a 12-hr light/dark cycle in a temperature and humidity controlled environment. Mice are habituated to the environment for at least 3 days and all studies are carried out between 9:00 AM and 12:00 noon to reduce the effects of diurnal fluctuations. Test mice are given a single intraperitoneal injection of test compound or control (vehicle is 3% DMSO, 20% emulphor stock, 10% lactic acid stock) and are sacrificed approximately 30 min. after dosing, using a beam of microwave radiation (microwave fixation system model GA5013; Gerling Applied Engineering, Modesto, Calif.) focused on the skull for 0.5 sec. at high power setting. This method preserves tissue cGMP content. After microwaving, a small piece (10-20 mg) of cerebellar cortex is quickly removed from the skull. The tissue is weighed and then homogenized in 2 ml of 1.0% perchloric acid. Tissue homogenate is kept on ice for 30 min followed by 5 min. in a boiling water bath. The homogenate is then centrifuged at 11,700 g for 20 min. 1 mL of supernatant is then acetylated with 40 μl of triethylamine and 20 μl of acetic anhydride, vortexed, and centrifuged at 13,000 g for 20 min at 4° C. Acetylated mouse cerebellum samples are stored at 4° C. pending cGMP analysis by radioimmunoassay with the cGMP ^125I Flash Plate radioimmunoassay test kit (PerkinElmer Life and Analytical Sciences, Boston, Mass.) on duplicate samples from each animal as per manufacturer's instructions.
For stressed mouse groups, 30 min. post injection, mice are subjected to a 1.0 mA foot-shock for 10 sec. in a Habitest Operant cage equipped with a modular shock floor (Habitest Modular Test System, Coulbourn Instruments, Allentown, Pa.). Mice are then sacrificed and cerebellar cortex samples are processed as described.
For each animal, cGMP levels are normalized to wet tissue weight and used to compute group averages and S.E.M. (typically 4-6 mice per group). All data are analyzed on the log scale to correct problems with heterogeneity of variance. Statistical analyses are performed using ANOVA followed by Dunnett's method to compare each treatment group to the vehicle group.

Male Sprague Dawley rats [1] = assay: Formalin model of persistent pain; type: in vivo; details: formalin into hind paw
Protocol: The “formalin model” of persistent pain, particularly for inflammatory pain and neuropathic pain, is well known and can be used to test compounds for pain blocking and/or analgesic activity. (see Shibata M. et al., Pain (1989) 38: 347-352; and Tjolsen A. et al., Pain (1992) 51:5-17.)
Male Sprague Dawley rats (Harlan Labs, Indianapolis, Ind.) weighing between 200-250 g are maintained at constant temperature (21-23° C.) and light (12 hr. light/12 hr. dark), with free access to food and water for 7 days prior to testing. All testing is conducted during the light cycle after fasting over night and with the testing room temperature maintained at constant temperature (21-23° C.). […]
The animals are administered either vehicle or test compound and individually placed in holding cylinders. […] The cylinders are then placed on the load cells of the detection system and the response monitored continuously for 60 min. in 1-second bins (i.e. collections periods). As previously described by Jett and Michelson, the formalin-induced movements, “events,” detected by the system include licking and flinching the affected paw. […]
Data are evaluated by one-way analysis of variance (ANOVA) and the appropriate contrasts analyzed by the Dunnett ‘t’ test for 2-sided comparisons using JMP statistical analysis program (v5.1.1 SAS Institute Inc., Cary, N.C.). […]

5-HT7 receptor = target: T1, 5-HT7 receptor (Homo sapiens, UniProt P34969); assay: Functional antagonist assay: measurement of cAMP formation; type: cell-based
T1 construct: expressed in transfected cells; host or cells: AV-12 cells
Protocol: For cAMP functional assays, the 5-HT7-expressing cells from above are grown in 150 cm^2 flasks and processed essentially as follows. The media is aspirated from the flasks and cells are washed with 1 mL PBS. The cells are trypsinized and resuspended in complete media. A sample of the cells is counted and the remainder is centrifuged as above for 3 min. The resulting cell pellet is resuspended in PBS at a concentration of 1×10^6 cells per mL and used directly in the cAMP assay as described.
The 5-HT7 receptor is functionally coupled to a G-protein as measured by the ability of serotonin and serotonergic drugs to stimulate cAMP production in CHO cells transfected with the 5-HT7 receptor. (Ruat, et al., Proceedings of the National Academy of Sciences (USA), 90:8547-8551, 1993.) Accordingly, functional receptor activity can be measured by measuring adenylate cyclase activity using a commercially available cell-based, homogeneous, time resolved fluorescence assay kit, as for example the kit produced by Cisbio-US, Inc. (Bedford, Mass.). Essentially, and using the protocol and reagents provided by the manufacturer, approximately 20,000 human 5-HT7 receptor-expressing AV-12 cells (as described above) are used with test compound dose concentrations in the range described for the binding assay. […] A cAMP standard curve is also run in every experiment. After the assay plates are read in an Envision™ instrument (Perkin-Elmer, Wellesley Mass.), the data is normalized to the standard curve and converted to percent inhibition for data analysis as described above for the receptor binding assay results. The Kb (nM) is calculated as a measure of the antagonist potency of the compound.

[2] = system: male Harlan Sprague-Dawley rats; assay: Animal model of dural plasma protein extravasation (PPE); type: in vivo; details: saline controls approximately 2.0, full prevention approximately 1.0
Description: The dural plasma protein extravasation model is an established model for migraine. The ability of a test compound to reduce extravasation of plasma proteins into the dura under assay conditions is considered indicative of the compound's ability to reduce or prevent the dural inflammation thought to be symptomatic of migraine. (see Johnson, K. W., et al., Neuroreport, 8 (1997) 2237-2240.)
To assay compounds for their ability to reduce or prevent dural plasma protein extravasation, male Harlan Sprague-Dawley rats (250-350 g) are anesthetized with sodium pentobarbital (65 mg/kg, i.p.) and placed in a stereotaxic frame (David Kopf Instruments) with the incisor bar set at −2.5 mm. Following a midline sagital scalp incision, 2 pairs of bilateral holes are drilled through the skull (3.2 mm posterially, 1.8 and 3.8 mm laterally, all coordinates referenced to bregma). […]
The amount of FITC-BSA for each sample is quantified with a fluorescence microscope (Zeiss) equipped with a grating monochromator, a spectrophotometer, and a computer driven stage. Fluorescence measurements are taken at 25 points in a 5×5 grid in 500 μm steps on each dural sample with an excitation wavelength of approximately 490 nm and emission intensity measured at approximately 535 nm. The mean and standard deviation of the 25 measurements are determined. […]

Male Sprague Dawley rats [3] = assay: L5/L6 nerve ligation model (Chung model) of persistent pain; type: in vivo; details: i.p.
Protocol: The L5/L6 Nerve Ligation model (Chung model) is a well established model for persistent pain, specifically neuropathic pain. Surgery is performed on male Sprague Dawley rats (Harlan, Indianapolis, Ind.), weighing 150-200 g at the time of surgery as previously described (Kim and Chung, 1992). Briefly, neuropathic injury is produced by tightly ligating the left L5 and L6 spinal nerves under gas anesthesia with a mixture of isoflurane (3% for induction and 2% for maintenance) and O2. Following surgery, development of neuropathic pain is evaluated daily by measuring mechanical sensitivity of the injured paw to von Frey filaments with incremental bending forces (0.5-15 g) as described by (Chaplan et al., 1994). […] Test drug or vehicle is administered i.p. and the mechanical threshold for paw flinching is measured at 0.5, 1, 2, 3, 4 and 6 hr. after dosing. Measurement of the mechanical threshold for paw flinching is also done prior to surgery (preoperative control). Data are expressed as the threshold force required to elicit a response (g) as means±S.E.M. (standard error of the mean).

T1 sequence (P34969 whole entry): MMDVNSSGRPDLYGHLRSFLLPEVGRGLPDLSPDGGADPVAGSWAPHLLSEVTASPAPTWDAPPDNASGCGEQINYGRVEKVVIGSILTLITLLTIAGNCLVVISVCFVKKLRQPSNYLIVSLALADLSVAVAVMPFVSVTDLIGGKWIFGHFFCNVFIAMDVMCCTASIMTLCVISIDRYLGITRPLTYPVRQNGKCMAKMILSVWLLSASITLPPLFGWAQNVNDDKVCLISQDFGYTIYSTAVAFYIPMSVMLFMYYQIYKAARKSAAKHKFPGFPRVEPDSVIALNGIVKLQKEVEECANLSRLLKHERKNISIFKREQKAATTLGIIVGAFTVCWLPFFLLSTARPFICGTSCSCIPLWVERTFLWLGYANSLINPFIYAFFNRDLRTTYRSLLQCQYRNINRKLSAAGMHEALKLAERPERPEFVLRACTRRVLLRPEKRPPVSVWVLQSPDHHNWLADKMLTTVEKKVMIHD

Cc1nnc2n1-c1ccc(Cl)cc1C(c1ccccc1)=NC2 [Alprazolam, alprazolam]
cerebellar cGMP, stress (adult male CF-1 mice; 1 mg/kg (ip, 30 min)/stress): 60* percent

CNC1=Nc2ccc(Cl)cc2C(c2ccccc2)=[N+]([O-])C1 [Chlordiazepoxide, chlordiazepoxide]
cerebellar cGMP, stress (adult male CF-1 mice; 10 mg/kg (ip, 30 min)/stress): 129%
cerebellar cGMP, stress (adult male CF-1 mice; 30 mg/kg (ip, 30 min)/stress): 106* percent
cerebellar cGMP, stress (adult male CF-1 mice; 60 mg/kg (ip, 30 min)/stress): 71* percent

Cc1c(CN2CCN(c3nccnc3-c3ccc(F)cc3)CC2)cnn1-c1ccccc1.Cl [Example 19, 4-(5-methyl-1-phenyl-1H-pyrazol-4-ylmethyl)-3′-(4-fluorophenyl)-3,4,5,6-tetrahydro-2H-[1,2′]bipyrazine hydrochloride]
formalin-induced events, early and late phases (Male Sprague Dawley rats [1]): active on both the early and late phases

Cl.Cn1cc(CN2CCN(c3cccnc3-c3ccc(F)cc3)CC2)cn1 [Example 74, 1-[2-(4-Fluoro-phenyl)-pyridin-3-yl]-4-(1-methyl-1H-pyrazol-4-ylmethyl)-piperazine hydrochloride]
Kb (5-HT7 receptor; antagonist potency, cAMP, 5-HT7-expressing AV-12 cells): ~44 nM
antagonist character at the 5-HT7 receptor (5-HT7 receptor; cAMP formation): full antagonist
inhibition (5-HT7 receptor; cAMP formation, 5-HT7-expressing AV-12 cells): about 96%

Cc1c(CN2CCN(c3nccnc3-c3cccc(F)c3)CC2)cnn1C.Cl [Example 127, 4-(1,5-Dimethyl-1H-pyrazol-4-ylmethyl)-3′-(3-fluoro-phenyl)-3,4,5,6-tetrahydro-2H-[1,2′]bipyrazinyl hydrochloride]
ratio of extravasation in the dura, stimulated side over unstimulated side [2]: about 1.16

Cc1ccc(-c2nccnc2N2CCN(Cc3cn(C)nc3C)CC2)cc1.O=C(O)/C=C/C(=O)O [Example 186, 4-(1,3-Dimethyl-1H-pyrazol-4-ylmethyl)-3′-(4-methylphenyl)-3,4,5,6-tetrahydro-2H-[1,2′]bipyrazine fumarate]
cerebellar cGMP, stress (adult male CF-1 mice; 3 mg/kg (ip, 30 min)/stress): 278%
cerebellar cGMP, stress (adult male CF-1 mice; 10 mg/kg (ip, 30 min)/stress): 264%
cerebellar cGMP, stress (adult male CF-1 mice; 30 mg/kg (ip, 30 min)/stress): 234%
cerebellar cGMP, stress (adult male CF-1 mice; 60 mg/kg (ip, 30 min)/stress): 117* percent
threshold force required to elicit a response (mechanical allodynia) (Male Sprague Dawley rats [3]): active

CC1CCN(CC[C@H]2CCCN2S(=O)(=O)c2cccc(O)c2)CC1 [SB-269970]
cerebellar cGMP, stress (adult male CF-1 mice; 3 mg/kg (ip, 30 min)/stress): 270%
cerebellar cGMP, stress (adult male CF-1 mice; 10 mg/kg (ip, 30 min)/stress): 225%
cerebellar cGMP, stress (adult male CF-1 mice; 30 mg/kg (ip, 30 min)/stress): 171* percent
